In the assay the target is T1, human kidney renin (Homo sapiens, UniProt P00797).
T1 construct: Human renin was prepared from human kidney; from tissue; host or cells: human kidney
T1 sequence (P00797 67-406): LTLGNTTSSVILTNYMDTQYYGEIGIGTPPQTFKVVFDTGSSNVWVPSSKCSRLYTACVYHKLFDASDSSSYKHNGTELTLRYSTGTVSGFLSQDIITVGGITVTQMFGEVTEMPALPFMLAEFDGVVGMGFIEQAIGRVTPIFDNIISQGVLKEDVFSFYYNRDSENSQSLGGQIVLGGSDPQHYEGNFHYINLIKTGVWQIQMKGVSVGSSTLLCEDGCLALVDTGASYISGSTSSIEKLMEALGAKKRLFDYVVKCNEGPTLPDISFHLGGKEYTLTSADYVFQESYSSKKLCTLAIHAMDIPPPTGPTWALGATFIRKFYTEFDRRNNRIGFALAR
The assay is described as follows: Radioimmunoassay screen for renin inhibitors (angiotensin I generation, then quantitation by radioimmunoassay). As to conditions: human kidney renin, purified human plasma angiotensinogen, maleate buffer pH 6.0, 1 hour at 37° C.; read-out: IC50 Molar Concentration. In kind it is biochemical. Here is the method:
Radioimmunoassay Screen For Renin Inhibitors
The in vitro method for the screening of anti-renin compounds involves, first, angiotensin I generation, and second, the quantitation of the angiotensin I produced by radioimmunoassay.
The incubation medium consisted of 20 μl of purified human plasma angiotensinogen (1); 40 μl of human kidney renin (2); 5 μl of phenylmethylsulfonyl fluoride; 10 μl of disodium EDTA (10 mM); 10 μl of antirenin compound (5×10^-3, 5×10^-4, 5×10^-5) in dimethylformamide, or ethanol and a suitable amount of maleate buffer (77mM, pH 6.0) to make a final volume of 500 μl. The reaction mixture was incubated for 1 hour at 37° C. and the enzymatic reaction was stopped by placing the tube in ice-cold water. The angiotension I generated during the incubation was measured by a radioimmunoassay plasma renin activity kit (Clinical Assays, Inc.).
Radioimmunoassay Procedure
The incubation medium consisted of either 100 μl aliquots of the above reaction mixture or a standard amount of angiotensin I; 1000 μl of phosphate buffer (100 mM, pH7.6) and 100 μl of (^125 I)angiotensin in a gamma-coat, tube. After three hours of incubation at room temperature, the tubes were decanted, and the radioactivity of each tube was determined in a gamma counter. Duplicate determinations were performed for each incubation. The results were expressed in ng of angiotensin I generated per ml of generation medium per hour of incubation (ng/AI/ml/hr), and the % of inhibition was obtained by the following: % inhibition= [formula]
The results of this test on representative compounds of this invention appear in Table I, expressed as an IC50.
(1) The human plasma angiotensinogen derived from the blood of a person receiving oral contraceptive pills was purified by chromatography on a pepstatin-aminohexyl-agarose column.
(2) Human renin was prepared from human kidney.

The values that follow come from patent US5106835A, “Renin inhibitors” (American Cyanamid Company, priority 1990, dated 1992).

As to `CC(C)COC(NC(=O)[C@H](Cc1ccccc1)NC(=O)OCc1ccccc1)C(=O)N[C@@H](CC1CCCCC1)[C@@H](O)c1nccs1` (stereo partly drawn) [N-[Phenylmethoxy)carbonyl]-L-phenylalanyl-D-2-(2-methylpropo] [N-[(Phenylmethoxy)carbonyl]-L-phenylalanyl-D 2-(2-methylpropoxy)glycyl-(1R,2S)-2-amino-3-cyclohexyl-1-(2-thiazolyl)propan-1-ol], the IC50 was 11 µM.
